Results from patent US8859572B2, “Sulfone substituted 2,3-dihydroimidazo [1,2-C] quinazoline derivatives useful for treating hyper-proliferative disorders and diseases with angiogenesis” (Bayer Intellectual Property GmbH, priority 2008, dated 2014).

What follows are molecules tested against T1, PI3Kβ (recombinant truncated form (ΔN1-108) of the human p110β subunit of PI3K) (Homo sapiens, UniProt P42338) (assay: Solid-phase lipid kinase assay of PI3Kβ). Details: 7.5 ng protein/well, final 10 μM ATP, 2 h at rt.
T1 construct: His6 (N); made in house; host or cells: Spodoptera frugiperda Sf9 insect cells
T1 sequence (P42338 109-1070): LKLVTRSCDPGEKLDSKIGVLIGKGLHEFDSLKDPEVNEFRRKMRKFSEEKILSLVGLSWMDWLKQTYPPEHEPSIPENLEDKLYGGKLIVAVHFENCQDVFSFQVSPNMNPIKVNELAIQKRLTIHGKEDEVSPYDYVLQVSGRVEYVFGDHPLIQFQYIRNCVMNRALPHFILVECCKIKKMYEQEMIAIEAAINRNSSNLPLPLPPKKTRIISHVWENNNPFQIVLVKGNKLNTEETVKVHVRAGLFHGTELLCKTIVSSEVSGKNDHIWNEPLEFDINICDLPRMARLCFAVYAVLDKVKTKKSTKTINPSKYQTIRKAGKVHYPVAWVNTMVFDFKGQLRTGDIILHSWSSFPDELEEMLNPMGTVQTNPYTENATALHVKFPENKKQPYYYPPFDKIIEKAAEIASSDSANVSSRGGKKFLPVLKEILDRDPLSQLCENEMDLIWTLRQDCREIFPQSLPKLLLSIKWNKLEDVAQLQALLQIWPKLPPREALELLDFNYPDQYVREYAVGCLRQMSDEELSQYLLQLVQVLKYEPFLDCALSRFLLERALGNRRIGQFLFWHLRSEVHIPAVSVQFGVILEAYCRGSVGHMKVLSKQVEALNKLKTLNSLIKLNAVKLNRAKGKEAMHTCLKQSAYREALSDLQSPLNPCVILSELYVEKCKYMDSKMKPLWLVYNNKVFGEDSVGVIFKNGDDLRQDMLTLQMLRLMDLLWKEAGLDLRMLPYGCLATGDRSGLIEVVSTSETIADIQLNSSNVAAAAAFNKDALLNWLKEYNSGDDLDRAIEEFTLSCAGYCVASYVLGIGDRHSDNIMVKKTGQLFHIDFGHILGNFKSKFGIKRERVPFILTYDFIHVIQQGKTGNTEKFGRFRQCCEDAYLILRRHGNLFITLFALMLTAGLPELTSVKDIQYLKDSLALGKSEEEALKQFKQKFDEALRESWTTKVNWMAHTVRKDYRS
Type: biochemical
Protocol: To assess inhibition of PI3Kα by compounds, the Maxisorp™ plates were coated with 50 μL/well of a solution containing 50 μg/ml PtdIns and 50 μg/ml PtdSer dissolved in chloroform:ethanol (3:7). The plates were subsequently air-dried by incubation for at least 2 h in a fume hood. The reaction was set up by mixing 25 μL/well of assay buffer 2×(100 mM MOPSO/NaOH, 0.2 M NaCl, pH 7.0, 8 mM MgCl2, 2 mg/mL BSA (fatty acid-free)), and 7.5 ng/well PI3Kα in the lipid pre-coated plate. Test compounds at different concentrations (0.0, 0.003, 0.01 0.03, 0.1, 0.3, 1.0, 3.0 and 10 μM) were added in 2% DMSO. The reaction was initiated by adding 20 μL/well of ATP mix (final 10 μM ATP; 0.05 μCi/well [γ^33P]ATP). After incubation at rt for 2 h, the reaction was terminated by adding 50 μl/well stop solution (50 mM EDTA, pH 8.0). The plate was then washed twice with Tris-buffered saline (TBS, pH 7.4). MicroScint PS™ (PACKARD) scintillation mix was added at 100 μL/well, and radioactivity was counted using a TopCount™ (PACKARD) scintillation counter.
The inhibition percent at each concentration of compound was calculated, and IC50 values were determined from the inhibition of curve.
A recombinant truncated form (ΔN1-108) of the human p110β subunit of PI3K with an N-terminal His6-Tag was expressed in S. frugiperda 9 insect cells. Recombinant human PI3Kγ (full length human PI3K p110γ fused with a His6-tag at the C-terminus expressed in S. frugiperda 9 insect cells) was obtained from ALEXIS BIOCHEMICALS (#201-055-0010; San Diego, Calif.).
Kinase assays using recombinant truncated p110β or the full length p110γ were performed in a similar manner as described in the determination of IC50 values of compounds in the kinase assay of PI3Kα except that these isoforms were assayed using 7.5 ng and 25.0 ng of protein/well, respectively.

CCN(CC)S(=O)(=O)CCCOc1c(OCCCN2CCOCC2)ccc2c1N=C(NC(=O)c1cccnc1)N1CCN=C21 [Example 14, N-[7-{3-[(Diethylamino)sulfonyl]propoxy}-8-(3-morpholin-4-ylpropoxy)-2,3-dihydroimidazo[1,2-c]quinazolin-5-yl]nicotinamide] and CN(C)S(=O)(=O)CCCOc1c(OCCCN2CCOCC2)ccc2c1N=C(NC(=O)c1cccnc1)N1CCN=C21 [Example 15, N-[7-{3-[(dimethylamino)sulfonyl]propoxy}-8-(3-morpholin-4-ylpropoxy)-2,3-dihydroimidazo[1,2-c]quinazolin-5-yl]nicotinamide] cannot be ordered by IC50: under 100 nM for the first, under 100 nM for the second.

COc1c(OCCCS(=O)(=O)N(C)C)ccc2c1N=C(NC(=O)c1cnc(N)nc1)N1CCN=C21 [Example 17, 2-amino-N-(8-{3-[(dimethylamino)sulfonyl]propoxy}-7-methoxy-2,3-dihydroimidazo[1,2-c]quinazolin-5-yl)pyrimidine-5-carboxamide] and COc1c(OCCCS(=O)(=O)N(C)C)ccc2c1N=C(NC(=O)c1ccc(N)nc1)N1CCN=C21 [Example 18, 6-amino-N-(8-{3-[(dimethylamino)sulfonyl]propoxy}-7-methoxy-2,3-dihydroimidazo[1,2-c]quinazolin-5-yl)nicotinamide] cannot be ordered by IC50: under 100 nM for the first, under 100 nM for the second.

Compared with Nc1ncc(C(=O)NC2=Nc3cc(OCCCS(=O)(=O)N4CCOCC4)ccc3C3=NCCN23)cn1 [Example 29, 2-amino-N-{8-[3-(morpholin-4-ylsulfonyl)propoxy]-2,3-dihydroimidazo[1,2-c]quinazolin-5-yl}pyrimidine-5-carboxamide], Nc1ccc(C(=O)NC2=Nc3cc(OCCCS(=O)(=O)N4CCOCC4)ccc3C3=NCCN23)cn1 [Example 30, 6-amino-N-{8-[3-(morpholin-4-ylsulfonyl)propoxy]-2,3-dihydroimidazo[1,2-c]quinazolin-5-yl}nicotinamide] is higher in IC50: under 100 nM for the first, 100 to 3000 nM for the second.

CCN(CC)S(=O)(=O)CCCOc1ccc2c(c1OC)N=C(NC(=O)c1cccnc1)N1CCN=C21 [Example 6, N-(8-{3-[(diethylamino)sulfonyl]propoxy}-7-methoxy-2,3-dihydroimidazo[1,2-c]quinazolin-5-yl)nicotinamide] and COc1c(OCCCS(=O)(=O)N(C)C)ccc2c1N=C(NC(=O)c1cccnc1)N1CCN=C21 [Example 5, N-(8-{3-[(dimethylamino)sulfonyl]propoxy}-7-methoxy-2,3-dihydroimidazo[1,2-c]quinazolin-5-yl)nicotinamide] cannot be ordered by IC50: under 100 nM for the first, under 100 nM for the second.

First: O=C(NC1=Nc2c(OCCCS(=O)(=O)N3CCOCC3)cccc2C2=NCCN12)c1cccnc1 [Example 7, N-{7-[3-(morpholin-4-ylsulfonyl)propoxy]-2,3-dihydroimidazo[1,2-c]quinazolin-5-yl}nicotinamide]
Second: COc1c(OCCCS(=O)(=O)N2CCOCC2)ccc2c1N=C(NC(=O)c1cccnc1)N1CCN=C21 [Example 3, N-{7-methoxy-8-[3-(morpholin-4-ylsulfonyl)propoxy]-2,3-dihydroimidazo[1,2-c]quinazolin-5-yl}nicotinamide]
The IC50 of the first is higher: 100 to 3000 nM for the first, under 100 nM for the second. The second is the more potent here.

COc1c(OCCCS(=O)(=O)N2CCOCC2)ccc2c1N=C(NC(=O)c1cnc(N)nc1)N1CCN=C21 [Example 23, 2-amino-N-{7-methoxy-8-[3-(morpholin-4-ylsulfonyl)propoxy]-2,3-dihydroimidazo[1,2-c]quinazolin-5-yl}pyrimidine-5-carboxamide] and COc1c(OCCCS(=O)(=O)N2CCOCC2)ccc2c1N=C(NC(=O)c1ccc(N)nc1)N1CCN=C21 [Example 22, 6-amino-N-{7-methoxy-8-[3-(morpholin-4-ylsulfonyl)propoxy]-2,3-dihydroimidazo[1,2-c]quinazolin-5-yl}nicotinamide] cannot be ordered by IC50: under 100 nM for the first, under 100 nM for the second.

COc1c(OCCOCCNS(=O)(=O)c2ccccc2)ccc2c1N=C(NC(=O)c1cccnc1)N1CCN=C21 [Example 33, N-[7-methoxy-8-(2-{2-[(phenylsulfonyl)amino]ethoxy}ethoxy)-2,3-dihydroimidazo[1,2-c]quinazolin-5-yl]nicotinamide] and CCCS(=O)(=O)NCCOCCOc1ccc2c(c1OC)N=C(NC(=O)c1cccnc1)N1CCN=C21 [Example 32] cannot be ordered by IC50: under 100 nM for the first, under 100 nM for the second.

First: Cc1nc(C)c(C(=O)NC2=Nc3cc(OCc4ccc(S(C)(=O)=O)cc4)ccc3C3=NCCN23)s1 [Example 27, 2,4-dimethyl-N-(8-{[4-(methylsulfonyl)benzyl]oxy}-2,3-dihydroimidazo[1,2-c]quinazolin-5-yl)-1,3-thiazole-5-carboxamide]
Second: COc1c(OCc2ccc(S(C)(=O)=O)cc2)ccc2c1N=C(NC(=O)c1cnc(N)nc1)N1CCN=C21 [Example 16, 2-amino-N-(7-methoxy-8-{[4-(methylsulfonyl)benzyl]oxy}-2,3-dihydroimidazo[1,2-c]quinazolin-5-yl)pyrimidine-5-carboxamide]
The IC50 of the first is higher: 100 to 3000 nM for the first, under 100 nM for the second.

O=C(NC1=Nc2c(ccc(OCCCN3CCOCC3)c2OCCCS(=O)(=O)N2CCOCC2)C2=NCCN12)c1cccnc1 [Example 12] and CS(=O)(=O)c1ccc(COc2c(OCCCN3CCOCC3)ccc3c2N=C(NC(=O)c2cccnc2)N2CCN=C32)cc1 [Example 36, N-[7-{[4-(methylsulfonyl)benzyl]oxy}-8-(3-morpholin-4-ylpropoxy)-2,3-dihydroimidazo[1,2-c]quinazolin-5-yl]nicotinamide] cannot be ordered by IC50: under 100 nM for the first, under 100 nM for the second.

First: CN1CCN(S(=O)(=O)CCCOc2cccc3c2N=C(NC(=O)c2cccnc2)N2CCN=C32)CC1 [Example 8, N-(7-{3-[(4-methylpiperazin-1-yl)sulfonyl]propoxy}-2,3-dihydroimidazo[1,2-c]quinazolin-5-yl)nicotinamide]
Second: COc1c(OCCCS(=O)(=O)N2CCN(C)CC2)ccc2c1N=C(NC(=O)c1cccnc1)N1CCN=C21 [Example 1, N-(7-methoxy-8-{3-[(4-methylpiperazin-1-yl)sulfonyl]propoxy}-2,3-dihydroimidazo[1,2-c]quinazolin-5-yl)nicotinamide]
The IC50 of the first is higher: 100 to 3000 nM for the first, under 100 nM for the second. The second is the more potent here.

COc1c(OCCCN2CCS(=O)(=O)CC2)ccc2c1N=C(NC(=O)c1cnc(N)nc1)N1CCN=C21 [Example 21, 2-amino-N-{8-[3-(1,1-dioxidothiomorpholin-4-yl)propoxy]-7-methoxy-2,3-dihydroimidazo[1,2-c]quinazolin-5-yl}pyrimidine-5-carboxamide] and COc1c(OCCCN2CCS(=O)(=O)CC2)ccc2c1N=C(NC(=O)c1ccc(N)nc1)N1CCN=C21 [Example 19, 6-amino-N-{8-[3-(1,1-dioxidothiomorpholin-4-yl)propoxy]-7-methoxy-2,3-dihydroimidazo[1,2-c]quinazolin-5-yl}nicotinamide] cannot be ordered by IC50: under 100 nM for the first, under 100 nM for the second.

CCS(=O)(=O)NCCCOc1ccc2c(c1OC)N=C(NC(=O)c1cccnc1)N1CCN=C21 [Example 35, N-(8-[3-[(ethylsulfonyl)amino]propoxy]-7-methoxy-2,3-dihydroimidazo[1,2-c]quinazolin-5-yl)nicotinamide] and COc1c(OCCCN2CCS(=O)(=O)CC2)ccc2c1N=C(NC(=O)c1cccnc1)N1CCN=C21 [Example 4, N-{8-[3-(1,1-dioxidothiomorpholin-4-yl)propoxy]-7-methoxy-2,3-dihydroimidazo[1,2-c]quinazolin-5-yl}nicotinamide] cannot be ordered by IC50: under 100 nM for the first, under 100 nM for the second.

O=C(NC1=Nc2cc(OCCCS(=O)(=O)N3CCOCC3)ccc2C2=NCCN12)c1cccnc1 [Example 24, N-{8-[3-(morpholin-4-ylsulfonyl)propoxy]-2,3-dihydroimidazo[1,2-c]quinazolin-5-yl}nicotinamide] and O=C(NC1=Nc2cc(OCCCS(=O)(=O)N3CCOCC3)ccc2C2=NCCN12)c1cncnc1 [Example 28, N-{8-[3-(morpholin-4-ylsulfonyl)propoxy]-2,3-dihydroimidazo[1,2-c]quinazolin-5-yl}pyrimidine-5-carboxamide] fall in the same range of IC50: 100 to 3000 nM for the first, 100 to 3000 nM for the second.

CN(C)S(=O)(=O)CCCOc1cccc2c1N=C(NC(=O)c1cccnc1)N1CCN=C21 [Example 11, N-(7-{3-[(dimethylamino)sulfonyl]propoxy}-2,3-dihydroimidazo[1,2-c]quinazolin-5-yl)nicotinamide] and CS(=O)(=O)c1ccc(COc2cccc3c2N=C(NC(=O)c2cccnc2)N2CCN=C32)cc1 [Example 10, N-(7-{[4-(methylsulfonyl)benzyl]oxy}-2,3-dihydroimidazo[1,2-c]quinazolin-5-yl)nicotinamide] cannot be ordered by IC50: under 100 nM for the first, under 100 nM for the second.

For CN1CCN(S(=O)(=O)CCCOc2ccc3c(c2)N=C(NC(=O)c2cccnc2)N2CCN=C32)CC1 [Example 25, N-(8-{3-[(4-methylpiperazin-1-yl)sulfonyl]propoxy}-2,3-dihydroimidazo[1,2-c]quinazolin-5-yl)nicotinamide], the IC50 was 100 to 3000 nM.
